Results on 16 compounds are retold here after US7601846B2, “Compounds having activity as inhibitors of apoptosis” (The Regents of the University of California, priority 2001, dated 2009).

The subject of series [1] is Murine thymocytes. Briefly: Dexamethasone-induced thymocyte apoptosis assay (DiOC6/PI staining, flow cytometry). In kind it is cell-based. To be noted: Mus musculus, 6 hours; for viability at 10 µM: compound 10 μM; for viability at 10 µM / viability at 5 µM: challenged with DEX, control 72 ± 4, DEX alone 36 ± 7, read-out: Average cell survival (%) Average alive cells (%); for viability at 5 µM: compound tested at 5 μM (footnote b); for EC50: 5 μM dexamethasone. The method, then:
All of the compounds were screened in the thymocyte assay for cytotoxicity and their ability to prevent dexamethasone-induced cell death. Murine thymocytes were exposed to 10 μM or 5 μM of each compound in the presence or absence of DEX for six hours and then assayed for their in vitro viability by 3,3′-dihexyloxacarbocyanine iodide (DiOC6) and propidium iodide (PI) staining, and flow cytometry. When cell death signals converge on the mitochondria, there is a loss of the inner mitochondrial membrane potential and cells can no longer retain the dye DiOC6 as an indicator of apoptosis. Once cells lose the integrity of the outer cell membrane, then the dye propidium iodide is no longer excluded from these cells. The percentage of viable cells, which retained DiOC6 and excluded PI was compared to cells treated with DEX alone.
Apoptosis assays. Thymocytes were harvested from young C57B1/6 mice and cultured at 37° C. in 5% CO2 in RPMI 1640 containing 10% FBS, 1% Penicillin/Streptomycin (Gibco BRL, Rockville, Md.). Thymocytes were plated at a density of 10^7 cells/mL and pre-incubated with 5-10 μM of each compound (from 10 mM stock in DMSO) for 30 minutes before induction of apoptosis. Apoptosis was induced with 5 μM dexamethasone or by exposure to 6 Gy gamma radiation. After 6 hours, cell apoptosis was assayed by propidium iodide (PI) and 3,3′ dihexyloxacarbocyanine iodide (DiOC6) staining. The cells were removed from the plate and incubated for 30 minutes in medium with 40 nM DiOC6 and 5 μg/mL PI and then analyzed by flow cytometry in a FACS caliber (Beckton-Dickinson, San Jose, Calif.). Viable cells had high DiOC6 (FL-1) and low PI (FL-3), whereas apoptotic cells had low DiOC6 (FL-1) and low PI (FL-3). To evaluate the EC50s the thymocytes were pre-exposed to graded concentrations of selected compounds for 30 minutes and then apoptosis was induced with 5 μM dexamethasone. After 6 hours the cells were harvested and stained as above.
The concentration (EC50) of each compound that inhibited dexamethasone-induced cell death by 50% was determined by nonlinear regression fitting of the data to a one-site model. Pseudo Hill slopes were determined by nonlinear regression fit of the data to a sigmoidal dose-response equation (variable slope): % viability=minimum % viability+(maximum−minimum % viability)/[1+10(log EC50−X)^n], where X is the logarithm of inhibitor concentration, and n is the pseudo Hill slope and the maximum and minimum % viability were experimentally determined after dexamethasone exposure and drug treatment. EC50 values and 95% confidence intervals (CI) were derived from the sigmoid fits to the percent control transformed data shown using GraphPad Prism version 4.0b for Macintosh (GraphPad Software, San Diego, Calif.).

In series [2] the test system is Bax, PUMA, noxa, DR5 (killer) mRNA. The series can be described thus: Modulation of proapoptotic genes by real time PCR in DEX-treated thymocytes. In kind it is cell-based, mouse. The method, then:
Four proapoptotic genes were tested by real time PCR. […] PUMA and noxa belong to the BH3-only protein subclass while Bax is a multidomain member of the family. DR5 (also called killer) is an apoptosis-inducing membrane receptor for tumor necrosis factor-related apoptosis-inducing ligand (also called TRAIL and Apo2 ligand). DR5 is a transcriptional target of p53, and its over expression induces cell death in vitro (Finnberg et al., Molecular and Cellular Biology 2005, 25, 2000-2013).

For series [3], the system named is PUMA. Briefly: PUMA protein expression in DEX-treated thymocytes (western blot). In kind it is cell-based, mouse. To be noted: thymocytes pretreated with 10 μM compound, 5 μM dexamethasone 6 hours, FIG. 6. On the procedure:
Thymocytes were pretreated with 10 μM of the indicated compounds and then exposed to 5 μM of dexamethasone for 6 hours. The cytosolic proteins were fractionated and then separated on a 4-12% gradient gel by SDS-PAGE and transferred to a PDVF membrane, which was probed with antibodies to PUMA and actin.
After removal of medium, cells were disrupted in lysis buffer (10 mM HEPES pH 7.9, 10 mM KCl, 0.1 mM EDTA, 0.1 mM EGTA, 1 mM dithiothreitol, 0.5 mM phenylmethylsulfonyl fluoride, and 0.6% NP-40) on ice. The nuclei were separated by centrifugation and the cytoplasmic sample removed. The nuclear pellets were resuspended in (20 mM HEPES pH 7.9, 0.4 M NaCl, 1.0 mM EDTA, 1.0 mM EGTA, 1 mM dithiothreitol, 0.1 mM phenylmethylsulfonyl fluoride) and the insoluble material was removed by centrifugation. The samples were heated to 70° C. for 10 minutes in loading buffer with 10 mM DTT. Each lane of an SDS-PAGE gel was loaded with 20 μg of protein. After electrophoresis, the proteins were transferred to a polyvinylidene difluoride (PVDF) membrane, blocked with 2% I-block™ (Tropix Inc, Bedford, Mass.) containing 0.05% Tween-20 in PBS, and then incubated with anti-PUMA (AbCam, Inc., Cambridge, Mass.). Horseradish peroxidase-conjugated anti-IgG (Santa Cruz Laboratories, Santa Cruz, Calif.) was used as the secondary antibody. […]
On the technique in general: Immunoblotting shows a protein as a band on a membrane.

The test system of series [4] is spontaneous apoptosis and fludarabine-induced apoptosis. The series can be described thus: Protection against spontaneous and fludarabine-induced apoptosis (FIG. 2). In kind it is cell-based.
For series [5] the following is noted: cited from earlier work.
Setting [6] is: Table 2, 30 minutes pre-exposure, read-out: EDEC50 (μM) of compounds in thymocyte apoptosis assay (first value in cell) (converted).
Setting [7] is: Table 1, 30 minutes pre-exposure, read-out: EDEC50 (μM) of compounds in thymocyte apoptosis assay.
The mark [8] stands for this setting: mouse thymocytes treated with DEX, FIG. 5.

Each structure is given as a SMILES string. Structures can show the parent of a compound that is named as a salt. Where two headings read alike, the source gives them in different places.

On to `c1coc(-c2cn3c(n2)sc2ccccc23)c1` [Compound 3, 2-Furan-2-yl-imidazo[2,1-b]benzothiazole hydrobromide salt], for which the viability at 10 µM in series [1] is 16%.

As for `Cc1ccc(-c2cn3c(n2)sc2cc(O)ccc23)cc1` [Compound 4, 2-p-Tolyl-benzo[d]imidazo[2,1-b]thiazol-7-ol], the viability at 5 µM in series [1] was 19%.

As to `Brc1ccc(-c2cn3c(n2)sc2ccccc23)cc1` [Compound 5], the viability at 10 µM in series [1] was 22%.

As to `Cc1ccc(-c2nc3sc4ccccc4n3c2Br)cc1` [Compound 6, 3-Bromo-2-p-tolyl-imidazo[2,1-b]benzothiazole], the viability at 5 µM in series [1] amounted to 24%.

Take `Cc1ccc(-c2cn3c(n2)sc2cc(N)ccc23)cc1` [Compound 7, 2-p-Tolyl-imidazo[2,1-b]benzothiazol-7-ylamine]: the viability at 10 µM in series [1] was found to be 27%.

For `c1ccc2c(c1)sc1nc(-c3ccc(C4CCCC4)cc3)cn12` [Compound 8, 2-(4-Cyclopentyl-phenyl)-imidzxo[2,1-b]benzothiazoles hydrobromide salt], the viability at 10 µM in series [1] amounted to 36%.

Regarding `Cc1ccc(-c2cn3c(n2)sc2cc(Br)ccc23)cc1` [Compound 9, 7-Bromo-2-p-tolylimidazo[2,1-b]benzothiazole hydrobromide salt], the viability at 10 µM in series [1] worked out at 39%.

With `c1ccc(-c2ccc(-c3cn4c(n3)sc3ccccc34)cc2)cc1` [Compound 10], the EC50 in series [1] (setting [6]) was 8.12 µM. Further, in series [1], the viability at 10 µM amounted to 59%.

In the case of `COc1ccc2c(c1)sc1nc(-c3ccc(C)cc3)cn12` [Compound 11, 7-Methoxy-2-p-tolyl-imidazo[2,1-b]benzothiazole hydrobromide salt], the EC50 in series [1] (setting [7]) came to 4.44 µM. The viability at 5 µM in series [1] amounted to 68%.

Regarding `c1ccc(-c2cn3c(n2)sc2ccccc23)cc1` [Compound 12], in series [1] (setting [7]), the EC50 was 10.2 µM. Further, in series [1], the viability at 10 µM is 73%.

With `Cc1ccc(-c2cn3c(n2)sc2ccccc23)cc1` [Compound 13], the EC50 in series [1] (setting [6]) was 1.22 µM. Further, in series [1], the viability at 5 µM was 73%.

For the compound `c1ccc2cc(-c3ccc(-c4cn5c(n4)sc4ccccc45)cc3)ccc2c1` [Compound 14], in series [1] (setting [6]), the EC50 is 4.02 µM. The viability at 5 µM in series [1] came out at 75%.

In the case of `Br.c1ccc2c(c1)sc1nc(-c3ccc(N4CCCC4)cc3)cn12` [Compound 15, 2-(4-Pyrrolidin-1-yl-phenyl)-benzo[d]imidazo[2,1-b]thiazole hydrobromide salt], in series [1] (setting [6]), the EC50 was 0.35 µM. Also, the viability at 5 µM in series [1] turned out to be 78%. For the same compound, in series [2] (setting [8]), the “mRNA level of bax and killer relative to control” value was “below it”; the “mRNA level of proapoptotic genes (Bax, PUMA, noxa, DR5) relative to control” value is listed as “close to that of the control”. For the same compound, in series [3], the “PUMA protein expression (western blot)” value is listed as “total inhibition”.

Turning to `C[C@@H]1C[C@H]2[C@@H]3CCC4=CC(=O)C=C[C@]4(C)[C@@]3(F)[C@@H](O)C[C@]2(C)[C@@]1(O)C(=O)CO` [Dexamethasone, reference compound], the “Increase of PUMA mRNA upon treatment” value in series [2] (mouse thymocytes, DEX treatment alone) is on record as “over 9 fold”.

Take `Cc1ccc(-c2cn3c4c(sc3n2)CCCC4)cc1` [IBT]: in series [4], the “Effect against fludarabine-induced apoptosis” value is on record as “protective effect” and the “Effect against spontaneous apoptosis” value is on record as “protective effect”.

On to `Cc1ccc(C(=O)Cn2c3c(sc2=N)CCCC3)cc1` [PFT-α, 2-(2-imino-4,5,6,7-tetrahydro-benzothiazol-3-yl)-1-p-tolyl-ethanone hydrobromide, reference compound], for which the “PUMA protein expression (western blot)” value in series [3] is on record as “partial inhibition”. For the same compound, the “Stability under physiologic conditions” value in series [5] is recorded as “not stable”.
